Here are results for 5 compounds from ChEMBL document CHEMBL1123414, “Neurochemistry of aging. 1. Toxins for an animal model of Alzheimer's disease” (J Med Chem, 1986).

Where only a bound is given, the exact number is not on record here.

The target of assay [1] is T1, High affinity choline transporter 1 (Mus musculus, UniProt Q8BGY9).
T1 sequence (Q8BGY9 whole entry): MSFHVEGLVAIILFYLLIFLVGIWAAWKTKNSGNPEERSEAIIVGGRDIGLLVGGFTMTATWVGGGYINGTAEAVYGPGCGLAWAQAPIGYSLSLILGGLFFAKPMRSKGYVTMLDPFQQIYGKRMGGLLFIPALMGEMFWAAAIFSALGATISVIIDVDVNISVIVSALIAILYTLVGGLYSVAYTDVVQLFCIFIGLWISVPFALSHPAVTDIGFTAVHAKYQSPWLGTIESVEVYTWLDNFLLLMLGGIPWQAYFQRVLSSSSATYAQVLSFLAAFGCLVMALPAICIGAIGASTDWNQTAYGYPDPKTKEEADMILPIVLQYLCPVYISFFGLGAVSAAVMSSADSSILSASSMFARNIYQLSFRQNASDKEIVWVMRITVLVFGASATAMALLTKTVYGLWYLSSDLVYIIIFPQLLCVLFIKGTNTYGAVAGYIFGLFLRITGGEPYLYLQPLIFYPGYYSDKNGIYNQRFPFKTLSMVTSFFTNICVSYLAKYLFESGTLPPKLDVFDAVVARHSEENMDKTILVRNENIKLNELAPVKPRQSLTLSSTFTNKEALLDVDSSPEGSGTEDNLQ
Briefly: In vitro ability to inhibit the transport of [3H]choline in to high affinity choline transport system HAChT.

The target of assay [2] is Muscarinic acetylcholine receptor M3 (Rattus norvegicus) (UniProt P08483). The assay is described as follows: Compound was tested in vitro for its ability to displace [3H]-QNB from brain Muscarinic acetylcholine receptor.
Sequence of Muscarinic acetylcholine receptor M3 (Rattus norvegicus) (P08483 whole entry, looked up): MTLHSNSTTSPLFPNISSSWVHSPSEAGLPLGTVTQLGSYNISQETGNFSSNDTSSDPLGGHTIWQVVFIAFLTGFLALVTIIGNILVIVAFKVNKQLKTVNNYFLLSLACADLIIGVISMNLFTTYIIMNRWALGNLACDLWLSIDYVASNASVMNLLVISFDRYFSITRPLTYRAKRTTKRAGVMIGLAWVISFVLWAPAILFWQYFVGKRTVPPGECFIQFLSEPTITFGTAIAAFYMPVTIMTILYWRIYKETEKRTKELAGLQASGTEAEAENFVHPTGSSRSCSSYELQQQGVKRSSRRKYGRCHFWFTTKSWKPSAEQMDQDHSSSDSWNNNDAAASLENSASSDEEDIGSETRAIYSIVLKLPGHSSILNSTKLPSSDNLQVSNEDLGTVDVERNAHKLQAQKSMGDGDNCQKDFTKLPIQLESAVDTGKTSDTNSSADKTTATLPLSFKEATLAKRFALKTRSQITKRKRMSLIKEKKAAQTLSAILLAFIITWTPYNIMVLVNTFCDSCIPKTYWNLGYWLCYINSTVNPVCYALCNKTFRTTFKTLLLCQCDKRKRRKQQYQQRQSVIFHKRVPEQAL

In assay [1], `C[N+](C)(C)CCO` [CHOLINE] gave an IC50 of 1.6 µM.

The compound `CC(C)C[N+]1(CCO)CC1` came in with an IC50 in assay [1] of 31 µM. Also, in assay [2], the Displacement came to 6%. As to `CC[N+]1(CCO)CC1`, the IC50 in assay [1] was determined as 1.5 µM. In assay [2], this compound gave a Displacement of 18%. `CCCC[N+]1(CCO)CC1` displayed an IC50 in assay [1] greater than 1000 µM. In assay [2], this compound returned a Displacement of 9%. The like results for `CCC[N+]1(CCO)CC1` were, in that order, 7.5 µM and 16%.
